Earlier results in patent US20190231704A1 (Yale University, priority 2016, published 2019).

Target: T1, ALK4 (Homo sapiens, UniProt P36896)
T1 sequence (P36896 24-505): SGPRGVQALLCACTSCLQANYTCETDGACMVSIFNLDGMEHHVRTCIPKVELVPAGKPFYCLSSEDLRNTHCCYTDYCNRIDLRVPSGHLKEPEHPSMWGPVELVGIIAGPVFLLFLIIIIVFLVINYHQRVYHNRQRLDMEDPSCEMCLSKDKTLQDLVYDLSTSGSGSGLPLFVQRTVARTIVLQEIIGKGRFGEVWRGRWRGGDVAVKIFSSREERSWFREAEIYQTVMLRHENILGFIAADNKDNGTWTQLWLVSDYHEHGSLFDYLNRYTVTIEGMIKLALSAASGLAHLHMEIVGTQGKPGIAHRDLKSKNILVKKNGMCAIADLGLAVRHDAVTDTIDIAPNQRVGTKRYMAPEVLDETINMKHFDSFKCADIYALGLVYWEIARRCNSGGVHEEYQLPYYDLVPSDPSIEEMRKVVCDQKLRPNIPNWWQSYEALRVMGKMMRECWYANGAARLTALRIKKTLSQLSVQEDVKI

Cc1cccc(-c2[nH]c(C(C)(C)C)nc2-c2ccc3c(c2)OCO3)n1 [SB-505124]
IC50: 129 nM
